# Experiments:
# [1] = test system: mouse sensitised to oxazolone; test: Mouse Oxazolone Screen (topical anti-inflammatory activity); assay type: in vivo; conditions: 500 μg/ear topical, ear weights 24 h after oxazolone challenge
# Procedure: Compounds were tested for topical anti-inflammatory activity in a screen using the mouse sensitised to oxazolone, by a method modified from that of Dietrich and Hess [Dietrich, F. M., and Hess, R., Int. Arch. Allergy, (1970), 38, 246-259].
# Mice were sensitised with oxazolone (2 mg in 20 μl ethanol) on a shaved area of the abdomen. Five days later, the animals recieved 10 μl THF/MeOH (1:1 v/v) on the right ear, and the test compound in the same solvent on the left ear. One hour later, the animals were challenged with 100 μg oxazolone in 10 μl acetone on each ear. Ear weights were measured 24 h later. Percentage inhibition of the inflammatory swelling refers to the increase in weight of left ears (oxazolone plus compound) compared with solvent-treated negative controls, as a proportion of the increase in weight of right ears (oxazolone alone) over similar controls.
# [2] = test system: cantharidin mouse ear; test: Mouse Cantharidin Screen (topical anti-inflammatory activity, mouse ear); assay type: in vivo; conditions: ears weighed 24 h after cantharidin
# Procedure: Compounds were tested for topical anti-inflammatory activity in a cantharidin mouse ear screen, modified from Swinge et al [Swingle, K. F., Reiter, M. J. and Schwartzmiller, D. H., Arch. Int. Pharmacodyn., (1981), 254, 168-176].
# 25 μg cantharidin (in 10 μl THF/MeOH) was applied to both ears. Compound, in the same solvent, was applied at the same time, to the left ear only. Ears were weight 24 h after cantharidin application. Percentage inhibition of the acute inflammatory swelling refers to the increase in weight of left ears (cantharidin plug compound) compared with solvent-treated negative controls, as a proportion of the increase in weight of right ears (cantharidin alone) over similar controls.
# [3] = test system: 5-Lipoxygenase enzyme from RBL-1 cells; test: RBL-1 5-Lipoxygenase Screen; assay type: biochemical; conditions: 20 μM compound, 10,000 g supernatant, 6.3 μm arachidonic acid, 29° C.
# Procedure: 5-Lipoxygenase enzyme was prepared as a 10,000 g supernatant from RBL-1 cells by the method of Jakschik [Jakschik, B. A., Sun. F. F., Lee, L. M. and Steinhoff, M. M., 1980, Biochem. Biophys. Res. Comm. 95, 103]. The 10,000 g supernatant was diluted with homogenization buffer to the equivalent of 1.5-2.5×10^7 cells ml^-1 and made 2 mM with respect to CaCl2. Aliquots of 0.5 ml were then dispensed into tubes, and incubated at 29° C. with 5 γl ethanol or compound in ethanol at the desired concentration for 2 min. Then [1-^14 C] arachidonic acid was added in buffer to give a final concentration of 6.3 μm and 0.2 μCi per incubation, and the reaction continued at 29° C. for 2 min. The reaction was terminated by adding 1 ml of acetone and cooling on ice, 0.5 ml of ice-cold saline and 10 μl of 2N formic acid were added, and the mixture was extracted with 2×2 ml of chloroform. The extract was stored under N2 at -20° C. until analysis by chromatography. Activity was measured as the percentage of total radioactivity found in 5-HETE and 5,12-diHETE, and inhibition calculated as the decrease in formation of the sum of these two species in compound-treated incubates relative to control incubates.
# [4] = test system: mice; conditions: J. Heterocycl. Chem. 1971, 8(6), 1035-7; cited from earlier work
structure (smiles),measurement,setting,value
"CCOC(=O)c1cnc2cn[nH]c2c1Nc1ccccc1 [Example 1, Ethyl 7-anilino-1H-pyrazolo[4,3-b]pyridine-6-carboxylate]",inhibition of the inflammatory swelling,[1],24%
"C=CCNc1c(C(=O)OCC)cnc2cn[nH]c12 [Example 2, Ethyl 7-Allylamino-1H-pyrazolo[4,3-b]-pyridine-6-carboxylate]",inhibition of the acute inflammatory swelling,[2]; 500 μg/ear topical,20%
"CCCCNc1c(C(=O)OCC)cnc2cn[nH]c12 [Example 6, Ethyl 7-n-Butylamino-1H-pyrazolo[4,3-b]pyridine-6-carbosylate]",inhibition of the acute inflammatory swelling,[2]; 200 μg/ear topical,42%
same,"inhibition of formation of 5-HETE and 5,12-diHETE",[3],78%
CC(=O)N(C(C)=O)c1cc(C)nc2c(C)n[nH]c12 [compound wherein R is NAc2],CNS antidepressant activity,[4],CNS antidepressant activity

# From patent US4621089A, “Pyrazolopyridine derivatives and their use in treating inflammation and allergic conditions” (Beecham Group p.l.c., priority 1984, dated 1986)
